Results: US12090164B2, “Genotype-agnostic rescue of cystic fibrosis with small molecule bicarbonate channels” (The Board of Trustees of the University of Illinois, priority 2017, dated 2024)
“Also recorded” adds a separate entry of the source.

Columns and labels:
[1] = tested on: CuFi-1 (ΔF508/ΔF508) airway epithelia; test: Ussing chamber permeabilization of differentiated CF airway epithelia; type: cell-based, human; conditions: differentiated CuFi-1 epithelia
Protocol: A series of natural products and synthetic compounds reported previously to permeabilize liposomes, cells, and/or nasal epithelia of mice to anions (11-14) were tested using an Ussing chamber and differentiated cultures of airway epithelia derived from an immortalized airway epithelial cell line from a CF patient having the most common ΔF508/ΔF508 genotype (CuFi-1) (15). […] The capacity for AmB and C35deOAmB to transport bicarbonate across cholesterol-containing POPC liposomes was tested using an adapted ^13C NMR-based assay (18).

[2] = tested on: CuFi-4 (G551D/ΔF508) epithelia; test: ASL pH in cultured CF airway epithelia (SNARF-dextran); type: cell-based, human
Protocol: (§1) Small diameter NuLi, CuFi, and primary cultured epithelia were used for this experiment (0.33 cm^2). The ratiometric pH indicator SNARF-conjugated dextran (Molecular Probes) was used to measure ASL pH. SNARF powder was suspended via sonication in perfluorocarbon (FC-72, Sigma) and distributed onto the apical surface. ASL pH was measured 2 hr later (3, 4, 25). SNARF was excited at 488 nm and emission was recorded at 580 nm and 640 nm using a Zeiss LSM 800 microscope at 40× water immersion for cell line cultures and a Zeiss LSM 510 microscope for primary cultures. To generate a standard curve for pH determination, SNARF was dissolved in colorless pH standards and fluorescence ratios were converted to pH.
(§2) Agents tested in this assay were first lyophilized into powder and then suspended in the appropriate volume of perfluorocarbon (FC-72, Sigma) and sonicated for 1 minute to suspend. AmBisome should not be sonicated; instead, the fine powder was suspended by vortexing.
(§3) In all experiments, ASL pH of compound-treated epithelia was measured compared the results to vehicle-treated epithelia.
(§4) For apical AmB administration, cultured airway epithelia were incubated for 30 min-48 hrs at 37° C. before measurement of ASL pH. For AmB-cholesterol complex and C35deOAmB administration, cultured airway epithelia were incubated for 48 hrs at 37° C. before measurement of ASL pH. To test the effect of […] ATPase inhibition, AmB was administered 47 hours prior to 10 mM ouabain addition, and cultured airway epithelia were incubated for an additional 1 hr at 37° C. before measurement of ASL pH. For 10 μM ivacaftor/10 μM forskolin administration, cultured airway epithelia were incubated for 2 hrs at 37° C. before measurement of ASL pH (25). For basolateral AmB administration, a 2 mM stock of AmB in DMSO was diluted 1000-fold to a final concentration of 2 μM in USG media. The basolateral media of cultured airway epithelia was replaced with the AmB-containing USG media and incubated for 48 hrs at 37° C. before measurement of ASL pH.

[3] = tested on: CuFi-1 (ΔF508/ΔF508) epithelia; test: as above; type: cell-based, human
Protocol: as §1, §2, §3, §4

[4] = tested on: CuFi-1 (ΔF508/ΔF508) epithelia; test: ASL cation concentrations by ICP-MS; type: cell-based, human; conditions: AmB 2 μM, 48 h, vs FC-72 vehicle
Protocol: Small diameter CuFi-1 cultured epithelia were used for this experiment (0.33 cm^2). 24 hours prior to the start of experiment, the apical side of all cultured epithelia was rinsed three times with 200 μL warm PBS to remove excess mucus. Fresh USG media was added to the basolateral membrane. CuFi-1 epithelia were treated with either perfluorocarbon (FC-72) vehicle or 2 μM AmB suspended in FC-72, and incubated at 37° C. for 48 hours. 0.1 μL capacity microcapillary tubes (Drummond Scientific NC1453214) were placed into 200 μL pipette tips (Denville Scientific P1122). 48 hours after AmB addition, the microcapillary tubes were gently touched around the edge of the apical membrane of each epithelial culture insert until completely filled with ASL via capillary action. […] The sample was then quantitatively transferred to a 15 mL capacity conical vial by washing 3 times with 50 μL molecular biology grade water.
Quantification of sodium, magnesium, potassium, and calcium was accomplished using inductively coupled plasma mass spectrometry (ICP-MS) of acidified samples. […] Quantitative standards were made using a mixed Na, Mg, K, and Ca standard at 100 μg/mL of each element (Inorganic Ventures, Christiansburg, VA, USA) which were combined to create a 100 ng/mL mixed element standard in 1.0% nitric acid (v/v). […]

[5] = tested on: NuLi (CFTR^+/+) epithelia; test: ASL pH in non-CF cultured airway epithelia; type: cell-based, human; conditions: apical AmB 2 μM, 48 h
Protocol: as §1, §2, §3
For apical AmB administration, cultured airway epithelia were incubated for 30 min-48 hrs at 37° C. before measurement of ASL pH. For AmB-cholesterol complex and C35deOAmB administration, cultured airway epithelia were incubated for 48 hrs at 37° C. before measurement of ASL pH. […]

[6] = tested on: protein ion channel-deficient yeast; conditions: cited from earlier work

With `C[C@@H]1[C@H](O)[C@@H](C)/C=C/C=C/C=C/C=C/C=C/C=C/C=C/[C@H](O[C@@H]2O[C@H](C)[C@@H](O)[C@H](N)[C@@H]2O)C[C@@H]2O[C@](O)(C[C@@H](O)C[C@@H](O)[C@H](O)CC[C@@H](O)C[C@@H](O)CC(=O)O[C@H]1C)C[C@H](O)[C@H]2C(=O)O` [AmB, amphotericin B] the “change in short circuit current / permeabilization of epithelia” value [1] was “exceptionally effective in causing a change in short circuit current”, the “increase in ASL pH” value ([2]; AmB 2 μM, ivacaftor/forskolin 10 μM) was about 0.2 unit and the “ASL pH” value ([2]; apical AmB 2 μM 48 h, ivacaftor/forskolin 10 μM 2 h) was “increase ASL pH; also recorded: increased the ASL pH; also recorded: increased ASL pH and H^14CO3^− secretion”. For the same molecule, the “ASL pH, basolateral addition of AmB” value ([3]; AmB 2 μM basolateral, 48 h) was “an increase in ASL pH was not observed; also recorded: No increase in pH was observed; also recorded: did not raise ASL pH or increase H^14CO3^− secretion”, the “ASL pH, apical addition” value ([3]; AmB or C35deOAmB 2 μM, ivacaftor/forskolin 10 μM, 2 h, vs vehicle) was “increases ASL pH relative to an untreated CuFi-1 control over 2 hours; also recorded: progressive increase in pH over 2 hours; also recorded: increased the ASL pH; also recorded: increased both; also recorded: progressively increased ASL pH over 2 hours” and the “time for which the increase in ASL pH is sustained” value ([3]; apical AmB 2 μM) was “at least 48 hours”. For the same molecule, the “AmB concentration at which increase in ASL pH reaches a maximum” value ([3]; apical addition) was 2 μM, the “concentration dependence of ASL pH increase” value ([3]; increasing concentrations up to 100 μM AmB) was “increases ASL pH in CuFi-1 monolayers at low but not at high concentrations; also recorded: decreases at higher concentrations; also recorded: ASL pH increased and then fell with progressively increasing concentrations of AmB” and the ASL cation concentrations [4] was “unchanged as compared to vehicle-treated controls; also recorded: do not alter major cation concentrations in the ASL”. The “ASL pH in non-CF epithelia” value [5] was “No increase in ASL pH was observed”, the “range of doses for which yeast growth rescue is observed” value ([6]; AmB pre-complexed with ergosterol) was “extended by more than an order of magnitude” and the yeast growth rescue [6] was “can restore growth in protein ion channel-deficient yeast; also recorded: restores potassium transport and thus growth in yeast missing the potassium-selective Trk transporters”.
